Reference: patent publication US20240308987A1, “SMALL MOLECULE INHIBITOR AGAINST NASOPHARYNGEAL CARCINOMA, PREPARATION METHOD AND APPLICATION THEREOF” (SHENZHEN BAY LABORATORY, priority 2021, published 2024)

tested on: C666-1 cells; experiment: C666-1 Cell Viability Assay (Resazurin cytotoxicity test); format: cell-based; conditions: Homo sapiens, C6661, EB virus-positive C666-1 cells, 72 hours treatment, 100-0.78 micromole/L, read-out: Inhibitory Rate
Summary of the method: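 EBV-positive nasopharyngeal carcinoma C666-1 cells, 5×10^3 per well, were grown 24 h, then exposed to compound for 72 h at 37 °C (8-point two-fold dilutions, final 100–0.78 µM). Viability was read by resazurin reduction fluorescence after 3 h; EC50 came from the fitted inhibition curve.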

SMILES	EC50
O=C(Nc1ccc(OC2CN(c3cccc(C(=O)O)c3-c3cccc(Cl)c3)C2)cc1)Nc1cccnc1 [Example 41a, 3′-chloro-6-(3-(4-(3-(pyridin-3-yl)ureido)phenoxy)azetidin-1-yl)-[1,1′-biphenyl]-2-carboxylic acid]	1 to 10 µM
COC(=O)c1cccc(N2CC(Oc3ccc(COc4cnccn4)cc3)C2)c1-n1cccc1 [Example 13, methyl 3-(3-(4-((pyrazin-2-yloxy)methyl)phenoxy)azetidin-1-yl)-2-(1H-pyrrol-1-yl) benzoate]	> 50 µM
COC(=O)c1cccc(C#Cc2ccc(NC(=O)Nc3cccnc3)c(O)c2)c1-c1ccccc1 [Example 22, methyl 6-((3-hydroxy-4-(3-(pyridin-3-yl)ureido)phenyl)ethynyl)-[1,1′-biphenyl]-2-carboxylate]	< 1 µM
COC(=O)c1cccc(N2CC(Oc3ccc(COc4ccn(C)n4)cc3)C2)c1-n1cccc1 [Example 32, methyl 3-(3-(4-(((1-methyl-1H-pyrazol-3-yl)oxy)methyl)phenoxy)azetidin-1-yl)-2-(1H-pyrrol-1-yl) benzoate]	> 50 µM
O=C(Nc1ccc(OC2CN(c3cccc(C(=O)O)c3-n3cccc3)C2)cc1)Nc1cccc(C(F)(F)F)c1 [Example 10a, 2-(1H-pyrol-1-yl)-3-(3-(4-(3-(3-(trifluoromethyl)phenyl)ureido)phenoxy)azetidin-1-yl) benzoic acid]	10 to 50 µM
CNC(=O)c1cccc(N2CC(Oc3ccc(COc4cccnc4)cc3)C2)c1-n1cccc1 [Example 1d, N-methyl-3-(3-(4-((pyridin-3-yloxy)methyl)phenoxy)azetidin-1-yl)-2-(1H-pyrrol-1-yl) benzamide]	< 1 µM
COC(=O)c1cccc(N2CC(Oc3ccc(CC(=O)Nc4ccccc4)cc3)C2)c1-n1cccc1 [Example 35, methyl 3-(3-(4-(2-oxo-2-(phenylamino)ethyl)phenoxy)azetidin-1-yl)-2-(1H-pyrrol-1-yl) benzoate]	> 50 µM
O=C(c1cccc(N2CC(Oc3ccc(COc4cccnc4)cc3)C2)c1-n1cccc1)N1CCCC1 [Example 1f, (3-(3-(4-((pyridin-3-yloxy)methyl)phenoxy)azetidin-1-yl)-2-(1H-pyrrol-1-yl)phenyl)(pyrrolidin-1-yl) methanone]	1 to 10 µM
O=C(Cc1ccc(OC2CN(c3ccccc3)C2)cc1)Nc1cccnc1 [Example 43c, 2-(4-((1-phenylazetidin-3-yl)oxy)phenyl)-N-(pyridin-3-yl) acetamide]	10 to 50 µM
O=C(NO)c1cccc(N2CC(Oc3ccc(CNc4cccnc4)cc3)C2)c1-c1cccc(Cl)c1 [Example 38b, 3′-chloro-N-hydroxy-6-(3-(4-((pyridin-3-ylamino)methyl)phenoxy)azetidin-1-yl)-[1,1′-biphenyl]-2-carboxamide]	< 1 µM
COC(=O)c1cccc(N2CC(Oc3ccc(NC(=O)Cc4cccnc4)cc3)C2)c1Cl [Example 55, methyl 2-chloro-3-(3-(4-(2-(pyridin-3-yl)acetamido)phenoxy)azetidin-1-yl) benzoate]	1 to 10 µM
COC(=O)c1cccc(N2CC(Oc3ccc(COc4cccnc4)cc3)C2)c1-c1ccccc1 [Example 17, methyl 6-(3-(4-((pyridin-3-yloxy)methyl)phenoxy)azetidin-1-yl)-[1,1′-biphenyl]-2-carboxylate]	1 to 10 µM
O=C(O)c1cccc(N2CC(Oc3ccc(/C=C/c4cccnc4)cc3)C2)c1-n1cccc1 [Example 28a, (E)-3-(3-(4-(2-(pyridin-3-yl)vinyl)phenoxy)azetidin-1-yl)-2-(1H-pyrrol-1-yl) benzoic acid]	1 to 10 µM
CN(C(=O)Nc1cccc(C#N)c1)c1ccc(OC2CN(c3cccc(C(=O)O)c3-n3cccc3)C2)cc1 [Example 7a, 3-(3-(4-(3-(3-cyanophenyl)-1 - methylureido)phenoxy)azetidin-1-yl)-2-(1H-pyrrol-1-yl) benzoic acid]	10 to 50 µM
COC(=O)c1cccc(N2CC(Oc3ccc(COc4cncc(OC)c4)cc3)C2)c1-n1cccc1 [Example 6, methyl 3-(3-(4-(((5-methoxypyridin-3-yl)oxy)methyl)phenoxy)azetidin-1-yl)-2-(1H-pyrrol-1-yl) benzoate]	> 50 µM
O=C(Cc1ccc(C#Cc2cccc(C(=O)O)c2-c2ccc3cc[nH]c3c2)cc1)Nc1cccnc1 [Example 61a, 2-(1H-indol-6-yl)-3-((4-(2-oxo-2-(pyridin-3-ylamino)ethyl)phenyl)ethynyl) benzoic acid]	< 1 µM
O=C(O)c1cccc(N2CC(Oc3ccc(COc4ccsn4)cc3)C2)c1-n1cccc1 [Example 33a, 3-(3-(4-((isothiazol-3-yloxy)methyl)phenoxy)azetidin-1-yl)-2-(1H-pyrrol-1-yl) benzoic acid]	> 50 µM
O=C(O)c1cccc(N2CC(Oc3ccc(COc4cccnc4)cc3)C2)c1-c1ccccc1 [Example 17a, 6-(3-(4-((pyridin-3-yloxy)methyl)phenoxy)azetidin-1-yl)-[1,1′-biphenyl]-2-carboxylic acid]	1 to 10 µM

SMILES	EC50
Cn1ccc(OCc2ccc(OC3CN(c4cccc(C(=O)O)c4-n4cccc4)C3)cc2)n1 [Example 32a, 3-(3-(4-(((1-methyl-1H-pyrazol-3-yl)oxy)methyl)phenoxy)azetidin-1-yl)-2-(1H-pyrrol-1-yl) benzoic acid]	> 50 µM
COC(=O)c1cccc(C#Cc2ccc(NC(=O)Cc3cccnc3)cc2)c1-c1ccccc1 [Example 62, methyl 6-((4-(2-(pyridin-3-yl)acetamido)phenyl)ethynyl)-[1,1′-biphenyl]-2-carboxylate]	< 1 µM
O=C(NO)c1cccc(N2CC(Oc3ccc(/C=C/c4cccnc4)cc3)C2)c1-c1ccccc1 [Example 36b, (E)-N-hydroxy-6-(3-(4-(2-(pyridin-3-yl)vinyl)phenoxy)azetidin-1-yl)-[1,1′-biphenyl]-2-carboxamide]	< 1 µM
O=C(Nc1ccc(OC2CN(c3cccc(C(=O)O)c3-c3ccccc3)C2)cc1)Nc1cccnc1 [Example 42a, 6-(3-(4-(3-(pyridin-3-yl)ureido)phenoxy)azetidin-1-yl)-[1,1′-biphenyl]-2-carboxylic acid]	1 to 10 µM
COC(=O)c1cccc(N2CC(Oc3ccc(COc4ccsn4)cc3)C2)c1-n1cccc1 [Example 33, methyl 3-(3-(4-((isothiazol-3-yloxy)methyl)phenoxy)azetidin-1-yl)-2-(1H-pyrrol-1-yl) benzoate]	> 50 µM
COC(=O)c1cccc(N2CC(Oc3ccc(NC(=O)Nc4cccnc4)cc3)C2)c1-c1ccccc1 [Example 42, methyl 6-(3-(4-(3-(pyridin-3-yl)ureido)phenoxy)azetidin-1-yl)-[1,1′-biphenyl]-2-carboxylate]	< 1 µM
O=C(O)c1cccc(N2CC(Oc3ccc(CNc4cccnc4)cc3)C2)c1-c1ccccc1 [Example 39a, 6-(3-(4-((pyridin-3-ylamino)methyl)phenoxy)azetidin-1-yl)-[1,1′-biphenyl]-2-carboxylic acid]	> 50 µM
O=C(O)c1cccc(N2CC(Oc3ccc(COc4cccnc4)c(Cl)c3)C2)c1-n1cccc1 [Example 19a, 3-(3-(3-chloro-4-((pyridin-3-yloxy)methyl)phenoxy)azetidin-1-yl)-2-(1H-pyrrol-1-yl) benzoic acid]	10 to 50 µM
COC(=O)c1cccc(N2CC(Oc3ccc(NC(=O)Nc4cccnc4)cc3)C2)c1-c1cccc(Cl)c1 [Example 41, methyl 3′-chloro-6-(3-(4-(3-(pyridin-3-yl)ureido)phenoxy)azetidin-1-yl)-[1,1′-biphenyl]-2-carboxylate]	< 1 µM
Cc1ccc(OCc2ccc(OC3CN(c4cccc(C(=O)O)c4-n4cccc4)C3)cc2)cn1 [Example 5a, 3-(3-(4-((6-methylpyridin-3-yloxy)methyl)phenoxy)azetidin-1-yl)-2-(1H-pyrrol-1-yl) benzoic acid]	> 50 µM
COC(=O)c1cccc(N2CC(Oc3ccc(N(C)C(=O)Nc4cccc(C#N)c4)cc3)C2)c1-n1cccc1 [Example 7, methyl 3-(3-(4-(3-(3-cyanophenyl)-1-methylureido)phenoxy)azetidin-1-yl)-2-(1H-pyrrol-1-yl) benzoate]	10 to 50 µM
O=C(Cc1ccc(C#Cc2cccc(C(=O)O)c2-c2ccccc2)cc1)Nc1cccnc1 [Example 60a, 6-((4-(2-oxo-2-(pyridin-3-ylamino)ethyl)phenyl)ethynyl)-[1,1′-biphenyl]-2-carboxylic acid]	< 1 µM
O=C(NO)c1cccc(N2CC(Oc3ccc(CNc4cccnc4)cc3)C2)c1-c1ccccc1 [Example 39b, N-hydroxy-6-(3-(4-((pyridin-3-ylamino)methyl)phenoxy)azetidin-1-yl)-[1,1′-biphenyl]-2-carboxamide]	< 1 µM
COC(=O)c1cccc(N2CC(Oc3ccc(CNc4cccnc4)cc3)C2)c1-n1cccc1 [Example 23, methyl 3-(3-(4-((pyridin-3-ylamino)methyl)phenoxy)azetidin-1-yl)-2-(1H-pyrrol-1-yl) benzoate]	10 to 50 µM
CNC(=O)c1cccc(N2CC(Oc3ccc(NC(=O)Cc4cccnc4)cc3)C2)c1-c1ccccc1 [Example 45c, N-methyl-6-(3-(4-(2-(pyridin-3-yl)acetamido)phenoxy)azetidin-1-yl)-[1,1′-biphenyl]-2-carboxamide]	< 1 µM
O=C(O)c1cccc(N2CC(Oc3ccc(COc4ccncc4)cc3)C2)c1-n1cccc1 [Example 8a, 3-(3-(4-((pyridin-4-yloxy)methyl)phenoxy)azetidin-1-yl)-2-(1H-pyrrol-1-yl) benzoic acid]	> 50 µM
O=C(NO)c1cccc(N2CC(Oc3ccc(COCc4cccnc4)cc3)C2)c1-n1cccc1 [Example 27b, N-Hydroxy-3-(3-(4-((pyridin-3-ylmethoxy)methyl)phenoxy)azetidin-1-yl)-2-(1H-pyrrol-1-yl)benzamide]	< 1 µM
COC(=O)c1cccc(N2CC(Oc3ccc(Cn4ccnc4)cc3)C2)c1-n1cccc1 [Example 56, methyl 3-(3-(4-((1H-imidazol-1-yl)methyl)phenoxy)azetidin-1-yl)-2-(1H-pyrrol-1-yl) benzoate]	10 to 50 µM
